Earlier results in PMC9001717, “Tyrosine 121 moves revealing a ligandable pocket that couples catalysis to ATP-binding in serine racemase” (Communications Biology, 2022).

B1: Golga3: Golgin subfamily A member 3 (protein, UniProt Q08378 1-1498, looked up)
Golgin subfamily A member 3: MDGASAEQDGLQEDRSHSGPSSLPEAPLKPPGPLVPPDQQDKVQCAEVNRASTEGESPDGPGQGGLCQNGPTPPFPDPPSSLDPTTSPVGPDASPGVAGFHDNLRKSQGTSAEGSVRKEALQSLRLSLPMQETQLCSTDSPLPLEKEEQVRLQARKWLEEQLKQYRVKRQQERSSQPATKTRLFSTLDPELMLNPENLPRASTLAMTKEYSFLRTSVPRGPKVGSLGLPAHPREKKTSKSSKIRSLADYRTEDSNAGNSGGNVPAPDSTKGSLKQNRSSAASVVSEISLSPDTDDRLENTSLAGDSVSEVDGNDSDSSSYSSASTRGTYGILSKTVGTQDTPYMVNGQEIPADTLGQFPSIKDVLQAAAAEHQDQGQEVNGEVRSRRDSICSSVSLESSAAETQEEMLQVLKEKMRLEGQLEALSLEASQALKEKAELQAQLAALSTKLQAQVECSHSSQQRQDSLSSEVDTLKQSCWDLERAMTDLQNMLEAKNASLASSNNDLQVAEEQYQRLMAKVEDMQRSMLSKDNTVHDLRQQMTALQSQLQQVQLERTTLTSKLKASQAEISSLQSVRQWYQQQLALAQEARVRLQGEMAHIQVGQMTQAGLLEHLKLENVSLSQQLTETQHRSMKEKGRIAAQLQGIEADMLDQEAAFMQIQEAKTMVEEDLQRRLEEFEGERERLQRMADSAASLEQQLEQVKLTLLQRDQQLEALQQEHLDLMKQLTLTQEALQSREQSLDALQTHYDELQARLGELQGEAASREDTICLLQNEKIILEAALQAAKSGKEELDRGARRLEEGTEETSETLEKLREELAIKSGQVEHLQQETAALKKQMQKIKEQFLQQKVMVEAYRRDATSKDQLISELKATRKRLDSELKELRQELMQVHGEKRTAEAELSRLHREVAQVRQHMADLEGHLQSAQKERDEMETHLQSLQFDKEQMVAVTEANEALKKQIEELQQEARKAITEQKQKMRRLGSDLTSAQKEMKTKHKAYENAVGILSRRLQEALAAKEAADAELGQLRAQGGSSDSSLALHERIQALEAELQAVSHSKTLLEKELQEVIALTSQELEESREKVLELEDELQESRGFRKKIKRLEESNKKLALELEHEKGKLTGLGQSNAALREHNSILETALAKREADLVQLNLQVQAVLQRKEEEDRQMKHLVQALQASLEKEKEKVNSLKEQVAAAKVEAGHNRRHFKAASLELSEVKKELQAKEHLVQKLQAEADDLQIREGKHSQEIAQFQAELAEARAQLQLLQKQLDEQLSKQPVGNQEMENLKWEVDQKEREIQSLKQQLDLTEQQGRKELEGLQQLLQNVKSELEMAQEDLSMTQKDKFMLQAKVSELKNNMKTLLQQNQQLKLDLRRGAAKTRKEPKGEASSSNPATPIKIPDCPVPASLLEELLRPPPAVSKEPLKNLNSCLQQLKQEMDSLQRQMEEHALTVHESLSSWTPLEPATASPVPPGGHAGPRGDPQRHSQSRASKEGPGE
B2: GRIP: glutamate receptor-interacting protein (protein, UniProt Q9Y3R0 1-1128, looked up)
Glutamate …: MIAVSFKCRCQILRRLTKDESPYTKSASQTKPPDGALAVRRQSIPEEFKGSTVVELMKKEGTTLGLTVSGGIDKDGKPRVSNLRQGGIAARSDQLDVGDYIKAVNGINLAKFRHDEIISLLKNVGERVVLEVEYELPPVSVQGSSVIFRTVEVTLHKEGNTFGFVIRGGAHDDRNKSRPVVITCVRPGGPADREGTIKPGDRLLSVDGIRLLGTTHAEAMSILKQCGQEAALLIEYDVSVMDSVATASGPLLVEVAKTPGASLGVALTTSMCCNKQVIVIDKIKSASIADRCGALHVGDHILSIDGTSMEYCTLAEATQFLANTTDQVKLEILPHHQTRLALKGPDHVKIQRSDRQLTWDSWASNHSSLHTNHHYNTYHPDHCRVPALTFPKAPPPNSPPALVSSSFSPTSMSAYSLSSLNMGTLPRSLYSTSPRGTMMRRRLKKKDFKSSLSLASSTVGLAGQVVHTETTEVVLTADPVTGFGIQLQGSVFATETLSSPPLISYIEADSPAERCGVLQIGDRVMAINGIPTEDSTFEEASQLLRDSSITSKVTLEIEFDVAESVIPSSGTFHVKLPKKHNVELGITISSPSSRKPGDPLVISDIKKGSVAHRTGTLELGDKLLAIDNIRLDNCSMEDAVQILQQCEDLVKLKIRKDEDNSDEQESSGAIIYTVELKRYGGPLGITISGTEEPFDPIIISSLTKGGLAERTGAIHIGDRILAINSSSLKGKPLSEAIHLLQMAGETVTLKIKKQTDAQSASSPKKFPISSHLSDLGDVEEDSSPAQKPGKLSDMYPSTVPSVDSAVDSWDGSAIDTSYGTQGTSFQASGYNFNTYDWRSPKQRGSLSPVTKPRSQTYPDVGLSYEDWDRSTASGFAGAADSAETEQEENFWSQALEDLETCGQSGILRELEEKADRRVSLRNMTLLATIMSGSTMSLNHEAPTPRSQLGRQASFQERSSSRPHYSQTTRSNTLPSDVGRKSVTLRKMKQEIKEIMSPTPVELHKVTLYKDSDMEDFGFSVADGLLEKGVYVKNIRPAGPGDLGGLKPYDRLLQVNHVRTRDFDCCLVVPLIAESGNKLDLVISRNPLASQKSIDQQSLPGDWSEQNSAFFQQPSHGGNLETREPTNTL
B3: PICK1: protein interacting with C-kinase (protein, UniProt Q9NRD5 1-415, looked up)
PRKCA-binding protein: MFADLDYDIEEDKLGIPTVPGKVTLQKDAQNLIGISIGGGAQYCPCLYIVQVFDNTPAALDGTVAAGDEITGVNGRSIKGKTKVEVAKMIQEVKGEVTIHYNKLQADPKQGMSLDIVLKKVKHRLVENMSSGTADALGLSRAILCNDGLVKRLEELERTAELYKGMTEHTKNLLRAFYELSQTHRAFGDVFSVIGVREPQPAASEAFVKFADAHRSIEKFGIRLLKTIKPMLTDLNTYLNKAIPDTRLTIKKYLDVKFEYLSYCLKVKEMDDEEYSCIALGEPLYRVSTGNYEYRLILRCRQEARARFSQMRKDVLEKMELLDQKHVQDIVFQLQRLVSTMSKYYNDCYAVLRDADVFPIEVDLAHTTLAYGLNQEEFTDGEEEEEEEDTAAGEPSRDTRGAAGPLDKGGSWCDS

test system: SR; set-up: method as in supplementary refs 2, 11-32; conditions: literature summary; ref supplementary refs 2, 11-32; cited from earlier work

| Molecule | Inhibition mode |
| --- | --- |
| O=C(O)C(O)C(=O)O [2-hydroxymalonate] | Competitive |
| N[C@@H](CC(=O)O)C(=O)O [L-aspartate] | Competitive |
| N[C@@H](CCl)C(=O)O [β-chloro-L-alanine] | Competitive |
| phosphatidylinositol 4,5-bisphosphate [PIP2] | Inhibition (noncompetitive) |
| O=C(O)CCC(=O)O [Succinic] | Competitive |
| NC(=O)C[C@H](N)C(=O)O [L-asparagine] | Competitive |
| O=C(O)C(O)C(O)C(=O)O (centres unmarked) [Tartaric] | Competitive |
| O=C(O)C(F)C(=O)O [2-fluoromalonate] | Competitive |
| O=C(O)CC(=O)C(=O)O [Oxaloacetic acid] | Product inhibition |
| NC(C(=O)O)C(=O)O [2-aminomalonate] | Competitive |
| N[C@@H](COS(=O)(=O)O)C(=O)O [L-serine-O-sulfate] | Competitive |
| O=C(O)C1CC1C(=O)O (centres unmarked) [1,2-cyclopropanedicarboxylic acid] | Competitive |
| N[C@@H](CSS(=O)(=O)O)C(=O)O [L-cysteine-S-sulfate] | Competitive |
| O=C(O)/C=C\C(=O)O [Maleic] | Competitive |
| NC(CCS(=O)(=O)O)C(=O)O (centres unmarked) [Homocysteic acid] | Competitive |
| O=C(O)C(Cl)(Cl)C(=O)O [2,2-dichloromalonate] | Competitive |
| O=C(O)/C(O)=C(\O)C(=O)O [Dihydroxyfumaric] | Competitive |
| O=C(O)C(CO)(CO)C(=O)O [2,2-bis(hydroxymethyl)malonate] | Competitive |
| O=C(O)C[C@H](O)C(=O)O [L-malic] | Competitive |
| NC(CO)(CO)C(=O)O [α-(hydroxymethyl)serine] | Substrate-product inhibition |
| B1 | Increases SR levels |
| B2 | Activation; binds to SR |
| B3 | Inhibition; binds to SR |
